Results reported in patent US5612369A, “Thrombin inhibitors” (3-Dimensional Pharmaceuticals, Inc., priority 1995, dated 1997).

Legend:
[1] = biological target: T1, human α-thrombin (Homo sapiens, UniProt P00734); test: In vitro inhibition of purified thrombin (hydrolysis of Bz-Phe-Val-Arg-pNa); type: biochemical; settings: for thrombin inhibition, potency and selectivity in words: conclusion from Table 1 (versus factor Xa and plasmin); for IC50: purified human α-thrombin 36 nM, Bz-Phe-Val-Arg-pNa 66 μM, pH 7.5, 37° C.
T1 construct: Purified human α-thrombin; purchased Enzyme Research Laboratories, Inc
Method: (§1) The ability of the compounds of the present invention to act as inhibitors of thrombin, factor Xa and plasmin catalytic activity was assessed by determining the concentration which inhibited enzyme activity by 50% using purified human enzymes. The concentration of added inhibitor that caused a 50% decrease in the initial rate of hydrolysis was defined as the IC50 value.
All assays are based on the ability of the test compound to inhibit the hydrolysis of a peptide p-nitroanilide substrate. In a typical experiment, appropriate substrate is prepared in DMSO, and diluted into an assay buffer consisting of 50ram HEPES and 130 mM NaCl at a pH of 7.5. The final concentration for each of the substrates is listed below. All substrate concentrations are at least 10 fold lower than Km to insure inhibition is competitive. Test compounds are prepared as 1 mg/ml solutions in DMSO, and three additional 10-fold dilutions in DMSO are prepared. Enzyme solutions are prepared at the concentrations listed below in assay buffer.
(§2) In a typical IC50 determination, into each well of a 96 well plate is pipetted 280 uL of substrate solution, 10 μL of inhibitor solution, and the plate is allowed to thermally equilibrate at 37° C. in a Molecular Devices Plate Reader for at least 10 minutes. Reactions are initiated by the addition of a 20 μL aliquot of enzyme, and the absorbance increase at 405 nm is recorded for 15 minutes. Data corresponding to less than 10% of the total substrate hydrolysis is used in the calculations. The ratio of the velocity (rate of the change in absorbance as a function of time) for a sample containing no inhibitor is divided by the velocity of a sample containing inhibitor, and is plotted as a function of inhibitor concentration. The inverse of the slope is the concentration of inhibitor which produces a 50% decrease in activity of the enzyme. This concentration is referred to as the IC50.
Thrombin activity was assessed as the ability to hydrolyse the substrate N-benzoyl-Phe-Val-Arg-p-nitroanilide (Bz-Phe-Val-Arg-pNa), and was obtained from Sigma Chemical Company (St. Louis, Mo.). Substrate solutions were prepared at a concentration of 60 μM (60 μM<<Km =1.2 mM) in assay buffer. Final DMSO concentration was 0.3%. Purified human α-thrombin was obtained from Enzyme Research Laboratories, Inc., and was diluted into assay buffer to a concentration of 1.2 μM. Final reagent concentrations were: [thrombin]=36 nM, [Bz-Phe-Val-Arg-pNa]=66 μM, [inhibitor]=60 to 0.06 μM.

[2] = test system: factor Xa; test: In vitro inhibition of factor Xa (hydrolysis of Bz-Ile-Glu-Gly-Arg-pNa); type: biochemical, human; settings: at 60 μM inhibitor; factor Xa 10 nM, Bz-Ile-Glu-Gly-Arg-pNa 26 μM, pH 7.5, 37° C.
Method: as §1
All assays are based on the ability of the test compound to inhibit the hydrolysis of a peptide p-nitroanilide substrate. In a typical experiment, appropriate substrate is prepared in DMSO, and diluted into an assay buffer consisting of 50ram HEPES and 130 mM NaCl at a pH of 7.5. The final concentration for each of the substrates is listed below. […]
as §2, with “Data corresponding to less than 10% of the total substrate hydrolysis is used in the calculations.” left out, “The inverse of the slope is the concentration of inhibitor which produces a 50% decrease in activity of the enzyme. This concentration is referred to as the IC50.” left out

Compound | thrombin inhibition, potency and selectivity in words [1] | IC50 [1] [µM] | Factor Xa % Inhibition at 60 μM [2] [%]
COc1cc(CNC(=O)[C@@H]2CCCN2C(=O)[C@H](N)Cc2ccccc2)ccc1O [Compound 7, D-phenylalanyl-N-[2-(4-hydroxy-3-methoxybenzyl)]-L-prolinamide] | highly selective and potent inhibitors of thrombin | 4.7 | 0
Nc1ccc(CNC(=O)[C@@H]2CCCN2C(=O)[C@@H](Cc2ccccc2)NC(=O)OCc2ccccc2)cc1 [Compound 12, N-CBZ-D-phenylalanyl-N-[2-(4-aminobenzyl)]-L-prolinamide] | highly selective and potent inhibitors of thrombin | 2.8 | 
Nc1ccc(CNC(=O)[C@@H]2CCCN2C(=O)[C@H](N)Cc2ccccc2)cc1 [Compound 13, D-phenylalanyl-N-[2-(4-aminobenzyl)]-L-prolinamide] | highly selective and potent inhibitors of thrombin | 1 | 0
